Test results published in patent US6011019A, “Vasoactive effects and free radical generation by β-amyloid peptides” (University of South Florida, priority 1996, dated 2000).

Assays:
blood vessel (rat aorta) = test: Vascular response of blood vessel rings in tissue bath (basal tension, β-amyloid induced vasoactivity)
Procedure: Freshly excised rat and porcine blood vessels were placed in Kreb's bicarbonate buffer equilibrated with 5% CO2 in O2. The buffer composition consisted of 118.2 mM NaCl, 4.7 mM KCl, 1.2 mM MgSO4, 2.5 mM CaCl2, 1.2 mM NaH2 PO4, 23 mM NaHCO3 and 11.2 mM glucose. After cleaning the vessels free of fat and other adhering tissues, the vessels were cut into ring segments of approximately 3 mm in length. Care was taken not to damage the intimal surface.
The endothelium was removed from some preparations by rubbing the inside of the lumen with a metal spatula for six to ten seconds and subsequent rinsing with buffer. The removal of endothelium was confirmed by testing for relaxation to acetylcholine [Furchgott and Zawadzki, 1980].
The blood vessel preparations were mounted on stainless steel hooks attached to a force-displacement transducer and equilibrated under the optimum tension of 1.3 g for a period of sixty minutes in a tissue bath (10 ml) containing oxygenated (5% CO2 in O2) Kreb's buffer at 37° C. The buffer was changed every fifteen minutes. After equilibration for sixty minutes the viability of the blood vessel with intact endothelium was established by constricting the blood vessel using phenylephrine ([…]). This dose of phenylephrine elicited 80% of the maximum response. […] The vessel preparations were washed for fifteen minutes before various manipulations as described below.
Referring to FIG. 10, the arrow indicates the addition of 10^-6 M β-amyloid. The control tissue received no β-amyloid. SOD (150 units/ml) was added thirty seconds prior to the addition of β-amyloid. The maximum contraction induced by β-amyloid was 1.14±0.13 (g) and in presence of SOD the contraction was reduced to 0.04±0.02 (g). Values represent the mean±SEM of five separate experiments.

[1] = test system: porcine coronary arteries; test: Porcine coronary artery vascular tone and bradykinin relaxation
Excerpt: Freshly isolated porcine coronary arteries were studied by the methods described above for rat aorta.
The effect of pre-treatment with a single dose of amyloid protein on relaxation induced by increasing concentrations of the vasodilator bradykinin is shown in FIG. 23. […] was preconstricted with a single dose of the vasoconstrictor U46619.

β-amyloid
maximum contraction induced by β-amyloid (blood vessel (rat aorta); 10^-6 M β-amyloid, mean±SEM of five experiments): 1.14 ± 0.13 g
duration of contraction/relaxation activity (blood vessel (rat aorta); after β-amyloid addition): fifteen to twenty minutes
initial detectable change: minor relaxation (blood vessel (rat aorta); after β-amyloid addition): < 0.1 g
onset of vasoactivity (blood vessel (rat aorta); after β-amyloid addition): within thirty seconds
constriction of the blood vessel (blood vessel (rat aorta); increasing concentration of β-amyloid, basal tension, intact endothelium): constricted the blood vessel in a concentration-dependent manner
endothelium dependence of the constricting effect (blood vessel (rat aorta); vessels with and without endothelium): only occurred in the presence of endothelium
contraction of porcine coronary artery ([1]; increasing concentrations of amyloid peptide): dose dependent contraction
vasodilation caused by bradykinin after amyloid peptide ([1]; single dose of amyloid, increasing bradykinin): reduced the vasodilation caused by the bradykinin
vasoconstriction by U46619 after amyloid peptide ([1]; single dose of amyloid, preconstricted with U46619): significant increase in vasoconstriction
